# Data from US20080153824A1, “Method for Controlling Fungal Diseases in Leguminous Plants” (BASF Aktiengesellschaft, priority 2004, published 2008).
# System: soybean rust
# Assay: Seed dressing trial, activity against soybean rust
# Format: in vivo, soybean rust on soybean plants (cultivar BRS 133)
# Conditions: soybean seeds cultivar BRS 133 treated with 1000 g orysastrobin/100 kg of seed (SC, 250 g/l, liquid dressing); inoculated 3 weeks after sowing; assessed 11 days after inoculation; untreated-seed plants 79% infected
# Description: Seed dressing trial, activity against soybean rust
# Soybean seeds of the cultivar BRS 133 were treated with 1000 g of orysastrobin/100 kg of seed, formulated as SC with 250 g of active compound per liter, as liquid dressing, then sown into pots and cultivated in a greenhouse at about 22° C. 3 weeks after sowing, the plants were inoculated with soybean rust, incubated at 100% relative atmospheric humidity for 24 hours and then again cultivated in the greenhouse. At the time of inoculation, the first pair of leaves and one subsequent leaf had developed. The infection of the leaves was assessed 11 days after the inoculation.
compound,measurement,value
"CNC(=O)/C(=N/OC)c1ccccc1CO/N=C(C)/C(=N/OC)C(C)=NOC (stereo in doubt) [orysastrobin, (2E)-2-(methoxyimino)-2-{2-[(3E,5E,6E)-5-(methoxyimino)-4,6-dimethyl-2,8-dioxa-3,7-diazanona-3,6-dien-1-yl]phenyl}-N-methylacetamide]",total infection of the leaves,less than 1%
